From US9458172B2, “Pyridinyl and pyrimidinyl sulfoxide and sulfone derivatives” (priority 2012, dated 2016)
Like-named read-outs stand apart in the source and are kept apart here.

How the values were obtained:
A2780 cells = assay: In-Vitro Cell Proliferation Assay (SRB); details: Homo sapiens, A2780, 72 h
NAMPT = NAMPT (Homo sapiens (Human), UniProt P43490); assay: Biochemical Inhibition Assay (NAMPT enzymatic reaction, NMN quantified by mass spectrometry); details: 33 nM recombinant His-tagged NAMPT, 1 μM NAM, 30 min at rt
Chain of NAMPT (P43490 whole entry): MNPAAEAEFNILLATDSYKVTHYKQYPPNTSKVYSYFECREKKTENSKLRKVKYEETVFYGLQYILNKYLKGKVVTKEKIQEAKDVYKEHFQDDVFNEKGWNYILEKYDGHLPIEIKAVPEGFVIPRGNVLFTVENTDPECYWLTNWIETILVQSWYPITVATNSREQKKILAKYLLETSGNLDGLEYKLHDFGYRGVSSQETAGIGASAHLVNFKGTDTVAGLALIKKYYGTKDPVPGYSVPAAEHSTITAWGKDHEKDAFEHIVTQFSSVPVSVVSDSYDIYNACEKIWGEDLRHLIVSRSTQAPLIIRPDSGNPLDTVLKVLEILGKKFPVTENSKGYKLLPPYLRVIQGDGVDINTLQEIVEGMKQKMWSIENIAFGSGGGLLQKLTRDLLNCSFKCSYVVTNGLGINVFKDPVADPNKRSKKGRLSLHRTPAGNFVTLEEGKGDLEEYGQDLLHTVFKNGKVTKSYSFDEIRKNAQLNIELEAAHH
Summary of the method: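 His-tagged human NAMPT from E. coli preincubated 15 min at rt with compound in 50 mM Hepes pH 7.5, 50 mM NaCl, 5 mM MgCl2, 1 mM THP, then reacted 30 min at rt with 1 μM NAM, […] PRPP, 2.5 mM ATP. NMN quantified by RapidFire mass spectrometry, normalized to L-Cystathionine, background subtracted.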

[1] = read-out: Cell Proliferation (IC50)

IC50 (A2780 cells; [1]) [µM]	IC50 (NAMPT) [µM]	IC50 (A2780 cells; read-out: Cell Proliferation (IC50), A2780 cells, 72 h, sulforhodamine B) [µM]	SMILES
0.0259	0.0054	–	CN(C)c1ccc(S(=O)(=O)c2ccc(CNC(=O)c3cnc4nccn4c3)nc2)cn1 [Example 69, Imidazo[1,2-a]pyrimidine-6-carboxylic acid (5-(6-dimethylamino-pyridine-3-sulfonyl)-pyridin-2-ylmethyl]-amide]
–	0.0485	0.0246	COc1ccc(S(=O)(=O)c2ccc(CNC(=O)c3cnc4[nH]ncc4c3)nc2)cc1OC [Example 70, 1H-Pyrazolo[3,4-b]pyridine-5-carboxylic acid [5-(3,4-dimethoxy-benzenesulfonyl)-pyridin-2-ylmethyl]-amide]
0.0765	0.0173	–	O=C(NCc1ccc(S(=O)(=O)c2cc(F)cc(F)c2)cn1)N1Cc2ccncc2C1 [Example 73, 1,3-Dihydro-pyrrolo[3,4-c]pyridine-2-carboxylic acid [5-(3,5-difluoro-benzenesulfonyl)-pyridin-2-ylmethyl]-amide]
0.0024	0.0078	–	CN(C)c1ncc(S(=O)(=O)c2ccc(CNC(=O)c3ccc4nccn4c3)nc2)s1 [Example 74, Imidazo[1,2-a]pyridine-6-carboxylic acid [5-(2-dimethylamino-thiazole-5-sulfonyl)-pyridin-2-ylmethyl]-amide]
0.0008	0.0022	–	CN(C)c1ncc(S(=O)(=O)c2ccc(CNC(=O)c3cc4ccncc4s3)nc2)s1 [Example 75, Thieno[2,3-c]pyridine-2-carboxylic acid [5-(2-dimethylamino-thiazole-5-sulfonyl)-pyridin-2-ylmethyl]-amide]
0.009	0.0031	–	CCCn1cc(S(=O)(=O)c2ccc(CNC(=O)c3cc4ccncc4s3)nc2)cn1 [Example 76, Thieno[2,3-c]pyridine-2-carboxylic acid [5-(1-propyl-1H-pyrazole-4-sulfonyl)-pyridin-2-ylmethyl]-amide]
0.0165	0.0176	–	O=C(NCc1ncc(S(=O)(=O)c2cccc(C(F)(F)F)c2)cn1)c1ccc2nccn2c1 [Example 77, Imidazo[1,2-a]pyridine-6-carboxylic acid [5-(3-trifluoromethyl-benzenesulfonyl)-pyrimidin-2-ylmethyl]-amide]
0.551	0.0594	–	O=C(NCc1ccc(S(=O)(=O)c2ccc(C(F)(F)F)nc2)cn1)c1cc2ccncc2s1 [Example 78, Thieno[2,3-c]pyridine-2-carboxylic acid [5-(6-trifluoromethyl-pyridine-3-sulfonyl)-pyridin-2-ylmethyl]-amide]
0.124	0.0205	–	O=C(NCc1ccc(S(=O)(=O)c2ccc(C(F)(F)F)nc2)cn1)c1cc2ccncc2o1 [Example 79, Furo[2,3-c]pyridine-2-carboxylic acid [5-(6-trifluoromethyl-pyridine-3-sulfonyl)-pyridin-2-ylmethyl]-amide]
0.0832	0.0227	–	CC(C)n1cc(S(=O)(=O)c2ccc(CNC(=O)N3Cc4ccncc4C3)nc2)cn1 [Example 80, 1,3-Dihydro-pyrrolo[3,4-c]pyridine-2-carboxylic acid [5-(1-isopropyl-1H-pyrazole-4-sulfonyl)-pyridin-2-ylmethyl]-amide]
0.0185	0.0123	–	O=C(NCc1ncc(S(=O)(=O)c2cccc(C(F)(F)F)c2)cn1)c1cc2ccncc2o1 [Example 81, Furo[2,3-c]pyridine-2-carboxylic acid [5-(3-trifluoromethyl-benzenesulfonyl)-pyrimidin-2-ylmethyl]-amide]
0.33	0.0723	–	O=C(NCc1ccc(S(=O)(=O)c2ccc(C(F)(F)F)nc2)cn1)c1ccc2nccn2c1 [Example 82, Imidazo[1,2-a]pyridine-6-carboxylic acid [5-(6-trifluoromethyl-pyridine-3-sulfonyl)-pyridin-2-ylmethyl]-amide]
0.0073	0.0091	–	CN(C)c1ccc(S(=O)(=O)c2ccc(CNC(=O)c3ccc4nccn4c3)nc2)cn1 [Example 83, Imidazo[1,2-a]pyridine-6-carboxylic acid [5-(6-dimethylamino-pyridine-3-sulfonyl)-pyridin-2-ylmethyl]-amide]
